Source: US11116767B2, “3,5-disubstituted pyrazoles useful as checkpoint kinase 1 (Chk1) inhibitors, and their preparations and applications” (PHARMAENGINE, INC., priority 2016, dated 2021)
Like-named read-outs stand apart in the source and are kept apart here. Each block holds one compound with its values, some of them ahead of it.

Legend:
Chk2 = biological target: T1, Chk2 (Homo sapiens, UniProt O96017); assay: biochemical; conditions: ADP-Glo; read-out: Chk2 in vitro enzyme activity (grade)
T1 construct: purchased Carna 02-162
T1 sequence (O96017 whole entry): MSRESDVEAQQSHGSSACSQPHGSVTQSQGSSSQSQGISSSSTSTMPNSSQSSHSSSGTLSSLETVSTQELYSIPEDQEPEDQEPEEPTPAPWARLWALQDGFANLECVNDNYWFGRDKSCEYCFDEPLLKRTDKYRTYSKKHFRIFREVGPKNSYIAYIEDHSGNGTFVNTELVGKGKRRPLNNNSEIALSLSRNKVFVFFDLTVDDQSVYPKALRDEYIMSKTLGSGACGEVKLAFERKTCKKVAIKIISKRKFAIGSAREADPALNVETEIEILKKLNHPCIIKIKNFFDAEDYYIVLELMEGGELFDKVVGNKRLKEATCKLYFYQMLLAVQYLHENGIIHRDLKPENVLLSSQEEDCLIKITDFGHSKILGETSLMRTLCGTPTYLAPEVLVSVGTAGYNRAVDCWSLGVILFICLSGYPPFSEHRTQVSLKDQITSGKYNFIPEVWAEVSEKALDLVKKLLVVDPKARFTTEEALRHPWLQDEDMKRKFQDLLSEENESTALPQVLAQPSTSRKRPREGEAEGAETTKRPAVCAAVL

MDA-MB-231 = assay: Cancer cell growth inhibition assay (CellTiter-Glo), MDA-MB-231; assay type: cell-based, Human; conditions: 72 hours, cellular ATP content, read-out: MDA-MB-231 anti cell proliferation activity (grade)
Method: (§1) Human cancer cell lines were purchased from American Type Culture Collection (Manassas, Va.). The trypsinized cells were diluted to required volume at densities of 44,000 cells/ml. 90 ul cell slurry was dispensed per well in 96-well flat-bottomed plates with the recommended culture medium. The cells were incubated for 24 hours at 37° C. in 5% CO2 under humidified condition. The cells were then incubated with compounds at various concentrations for 72 hours in culture medium supplemented with 0.5% (v/v) FBS. Growth inhibition was assessed by assay of cellular ATP content using CellTiter-Glo reagent to each well. Luminesce was read on Envision. The inhibition rate (%)=(Max signal compound signal)/(Max signal Min signal)×100.

HT-29 = assay: Cancer cell growth inhibition assay (CellTiter-Glo), HT-29; assay type: cell-based, Human; conditions: 72 hours, cellular ATP content, read-out: HT-29 anti cell proliferation activity (grade)
Method: as §1

[1] = Human liver S9 metabolic stability; assay type: in vitro ADME; conditions: for Percentage Remaining %: 1 μM, 37° C.; for half-life at 1 μM: human liver S9, 1 μM
Method: Compounds (1 μM) were incubated with human liver S9 (from BD Gentest) at final liver microsomal protein concentration of 0.5 mg/mL for 0, 5, 15, 30, 45 min at 37° C. The remaining compounds in the reaction were measured by LC-MS/MS. The half-life (T½) 0.693/K (K is the rate constant from a plot of ln [concentration] vs. incubation time).

[2] = Pharmacokinetics study in rats, intravenous; assay type: in vivo, SD rats; conditions: rat; for AUC(0-inf) / AUC(0-t) / clearance / MRT / half-life / Vd: male, SD, plasma; for AUC(0-inf): read-out: AUC0-inf; for AUC(0-t): read-out: AUC0-t; for clearance: read-out: CL (converted); for MRT: read-out: MRT; for half-life: read-out: t½ (converted)
Method: Compounds were formulated in 30% SEB-β-CD (Zhiyuan Bio-technology) with 1 molar equivalents of HCl (pH adjusted to 3-5). Male SD rats (280-350 g) were purchased from Medical Laboratory Animal Center of Guangdong. Three rats were used for each PK study. […] At various time points after compound administration, approximately 0.2˜0.3 mL of blood was collected by cutting the end of tail into tubes containing K2-EDTA. The plasma was separated via centrifugation and stored at −80° C. A PE Sciex API-3000 LC-MS/MS system (Applied Biosystems, Inc.) was used to analyze compound concentrations in plasma.
PK studies of ChK1 inhibitors were conducted in rats after intravenous administration at 10 mg/kg. […]. […]

Chk1 = biological target: T2, Chk1 (Homo sapiens, UniProt O14757); assay: biochemical; conditions: ADP-Glo; read-out: Chk1 in vitro enzyme activity (grade)
T2 construct: purchased BPS 40039
T2 sequence (O14757 1-476): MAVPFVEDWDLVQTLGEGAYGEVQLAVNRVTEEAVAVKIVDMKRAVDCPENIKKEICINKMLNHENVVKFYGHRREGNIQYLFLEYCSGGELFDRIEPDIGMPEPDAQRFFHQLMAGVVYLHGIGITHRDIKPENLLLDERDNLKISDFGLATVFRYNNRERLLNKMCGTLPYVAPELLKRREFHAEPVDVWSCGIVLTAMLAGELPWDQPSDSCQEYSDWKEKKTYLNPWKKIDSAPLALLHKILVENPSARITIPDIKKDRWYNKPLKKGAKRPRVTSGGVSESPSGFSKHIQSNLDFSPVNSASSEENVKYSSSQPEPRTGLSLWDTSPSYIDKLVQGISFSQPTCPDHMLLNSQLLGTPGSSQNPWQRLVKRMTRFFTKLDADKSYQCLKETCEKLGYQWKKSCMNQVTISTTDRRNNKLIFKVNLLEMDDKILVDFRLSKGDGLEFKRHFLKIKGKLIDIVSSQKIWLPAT

[3] = tested on: HT-29 colon cancer xenograft; assay type: in vivo
Method: (§2) Female Balb/c nude mice at 7-8 weeks of age (Body weights between 17-18g) were purchased from Hunan SJA Laboratory Animal Co., Ltd. HT-29 cells were cultured in DMEM culture medium containing 10% fetal bovine serum and LoVo cells were cultured in RPMI 1640 culture medium containing 10% fetal bovine serum. The cells were harvested and washed with serum free culture medium. Finally, the cells were suspended at a cell density of […] in serum free culture medium for implantation. 5 million cells per animal suspended in 0.1 ml serum free culture medium and 1.1 matrigel were injected into the right flank of the animals after a one, week acclimation period. When average tumor volume reached acceptable tumor size (100-200 mm^3) and shape, the animals were randomly assigned into treatment groups.
HT-29 colon cancer cells were implanted to establish the xenograft model in Balb/c nude mice. Compound 3 and LY2606368 were dissolved in 30% SEB-β-CD (Zhiyuan Bio-technology) with 1 molar equivalents of HCl. GDC-575 was suspended in 0.5% methyl cellulose/0.1% Tween 80 in water. […]. The animals well tolerated each treatment in the HT-29 colon cancer in nude mice model.

HT-29 tumor xenograft = assay: HT-29 xenograft model, alone or in combination with CPT-11; assay type: in vivo, Balb/c nude mice; conditions: for % T/C value: 15 mg/kg, IV
Method: as §2
In HT-29 tumor xenograft model, the animals were treated with a single compound, a ChK1 inhibitor or CPT-11, or a combination with CPT11. […] The animals well tolerated each treatment in the HT-29 colon cancer in nude mice model.

[4] = tested on: LoVo colon cancer xenograft; assay: LoVo colon xenograft model; assay type: in vivo, Balb/c nude mice; conditions: IV, twice a week
Method: as §2
Lovo colon cancer cells were implanted to establish the xenograft model in Balb/c nude mice. Compound 3 and LY2606368 were dissolved in 30% SEB-β-CD (Zhiyuan Bio-technology) with 1 molar equivalents of HCl. […]

[5] = tested on: ChK1 phosphorylation (pChK1 S296) in HT-29 colon cancer cells; assay: Western blot analysis of ChK1 phosphorylation in HT-29 cells with SN-38; assay type: cell-based, Human; conditions: HT-29 cells pre-incubated with Chk1 inhibitor 0.5 hours, then SN-38 (200 nM) 16 hours

- IC50 (Chk2): 50 to 100 nM
- melting point: 198 to 203 °C
- IC50 (MDA-MB-231; Homo sapiens, MDA-MB-231): 10 to 50 nM
- IC50 (HT-29; Homo sapiens, HT-29): 10 to 50 nM
- Percentage Remaining % ([1]; 0 min): 100.00%
- Percentage Remaining % ([1]; 5 min): 97.57%
- Percentage Remaining % ([1]; 15 min): 94.83%
- Percentage Remaining % ([1]; 30 min): 88.45%
- Percentage Remaining % ([1]; 45 min): 82.67%
- metabolic stability compared with LY2606368 ([1]; human liver S9): more metabolic stable than LY2606368
- half-life at 1 μM [1]: 4.29 days
- AUC(0-inf) ([2]; IV, 10 mg/kg): 2400 ng·h/mL
- AUC(0-t) ([2]; IV, 10 mg/kg): 2390 ng·h/mL
- clearance ([2]; IV, 10 mg/kg): 78.3 mL/min/kg
- MRT ([2]; IV, 10 mg/kg): 3.1 h
- half-life ([2]; IV, 10 mg/kg): 198 min
- Vd ([2]; iv, 10 mg/kg, IV, 10 mg/kg, read-out: Vd): 22.1 L/kg
- Vd ([2]; iv, 10 mg/kg, IV, 10 mg/kg, read-out: Vss): 14.3 L/kg
- IC50 (Chk1): ≤ 1 nM
SMILES: COc1cc(Cl)cc(OCCCN)c1-c1cc(Nc2cnc(C#N)cn2)n[nH]1 [Compound 4, 5-(5-(2-(3-Aminopropoxy)-4-chloro-6-methoxyphenyl)-1H-pyrazol-3-ylamino)pyrazine-2-carbonitrile]
- half-life and exposure compared with LY2606368 ([2]; IV, 10 mg/kg (LY2606368 5 mg/kg)): longer half-life and higher exposure than LY2606368

SMILES: COc1cccc(OCCCN)c1-c1cc(Nc2cnc(C#N)cn2)n[nH]1 [LY-2606368, reference compound]
- T/C value ([3]; 15 mg/kg, iv, 2 times/week): 61%
- Tumor volume (X ± SD) ([3]; 15 mg/kg, iv, 2 times/week): 615 ± 10 mm^3
- Tumor weight (X ± SD) ([3]; 15 mg/kg, iv, 2 times/week): 390 ± 24 mg
- % T/C value (HT-29 tumor xenograft; twice a week plus CPT-11 (50 mg/kg, IV, once per week)): 0%
- % T/C value (HT-29 tumor xenograft; alone, twice a week): 61%
- effect on anti-tumor growth activity of CPT11 (HT-29 tumor xenograft; combination with CPT11): enhanced anti-tumor growth activity of CPT11
- IC50 (MDA-MB-231; Homo sapiens, MDA-MB-231): 10 to 50 nM
- IC50 (HT-29; Homo sapiens, HT-29): 10 to 50 nM
- half-life at 1 μM [1]: 0.0611 days
- AUC(0-inf) ([2]; IV, 5 mg/kg): 637 ng·h/mL
- AUC(0-t) ([2]; IV, 5 mg/kg): 631 ng·h/mL
- clearance ([2]; IV, 5 mg/kg): 132 mL/min/kg
- MRT ([2]; IV, 5 mg/kg): 1.2 h
- half-life ([2]; IV, 5 mg/kg): 78 min
- Vd ([2]; iv, 5 mg/kg, IV, 5 mg/kg, read-out: Vd): 14.7 L/kg
- Vd ([2]; iv, 5 mg/kg, IV, 5 mg/kg, read-out: Vss): 9.7 L/kg
- tolerability in rats ([2]; in vivo, iv, 10 mg/kg): did not tolerated
- T/C value ([4]; 15 mg/kg): −57%
- tumor growth inhibition ([4]; LY2606368 15 mg/kg, Compound 3 10, 20, 40 mg/kg): significant tumor growth inhibition in a dose-dependent manner

SMILES: N[C@@H]1CCCN(c2c(Br)cnc3[nH]cc(NC(=O)C4CC4)c23)C1 [GDC-0575, reference compound]
- T/C value ([3]; 25 mg/kg, po, 3 times/week): 50%
- Tumor volume (X ± SD) ([3]; 25 mg/kg, po, 3 times/week): 515 ± 158 mm^3
- Tumor weight (X ± SD) ([3]; 25 mg/kg, po, 3 times/week): 349 ± 94 mg
- IC50 (Chk2): 50 to 100 nM
- IC50 (MDA-MB-231): 100 to 500 nM
- IC50 (HT-29): 100 to 500 nM
- IC50 (Chk1): 1 to 10 nM
- inhibition of Chk1 phosphorylation (FIG. 1) [5]: less potent than these compounds
